Laboratory results taken from PubChem BioAssay AID877 (University of Pittsburgh Molecular Library Screening Center, 2007).
Active and inactive are the calls of the source. The rule behind the calls is not given here.

Each compound was assayed against Serine/threonine-protein kinase PLK1 (Homo sapiens) (UniProt P53350) (assay: potency against Plk1 PBD phosphopeptide binding – biochemical, fluorescence polarization, dose response (AID 877)).
Chain of Serine/threonine-protein kinase PLK1 (Homo sapiens) (P53350 whole entry, looked up): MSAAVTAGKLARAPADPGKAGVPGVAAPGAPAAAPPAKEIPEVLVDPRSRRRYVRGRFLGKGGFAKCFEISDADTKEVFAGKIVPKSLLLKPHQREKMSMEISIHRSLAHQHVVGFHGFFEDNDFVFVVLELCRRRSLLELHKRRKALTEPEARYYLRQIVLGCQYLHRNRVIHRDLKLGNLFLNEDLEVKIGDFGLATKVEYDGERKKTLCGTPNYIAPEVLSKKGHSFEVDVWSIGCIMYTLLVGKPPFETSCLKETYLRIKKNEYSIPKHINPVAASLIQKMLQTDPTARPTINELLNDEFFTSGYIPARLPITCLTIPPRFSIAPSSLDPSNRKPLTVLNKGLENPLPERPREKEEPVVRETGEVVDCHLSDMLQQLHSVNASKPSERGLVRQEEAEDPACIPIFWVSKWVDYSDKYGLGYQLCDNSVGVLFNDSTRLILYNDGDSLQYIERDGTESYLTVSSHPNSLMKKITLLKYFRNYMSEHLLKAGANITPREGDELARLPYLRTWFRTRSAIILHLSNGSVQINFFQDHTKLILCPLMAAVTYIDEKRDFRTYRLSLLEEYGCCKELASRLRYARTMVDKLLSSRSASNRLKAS

IC50, inactive:
O=C(O)COc1ccc(Br)cc1/C=N/O > 50 µM
CCC(Sc1nc2n[nH]c(C)c2c(=N)n1-c1cccc(Cl)c1)C(=O)NCCOC (stereo not drawn) > 50 µM
O=C1C(C2=C(O)c3ccccc3C2=O)=Nc2ccccc21 > 50 µM
